Source: patent US4639468A, “Derivatives of glycinamide, their preparation and their use” (priority 1979, dated 1987)
Like-named read-outs stand apart in the source and are kept apart here.

Tests used:
[1] = tested on: convulsions induced by bicuculline; experiment: in vivo; details: for bicuculline (score: sum of animals protected by dosages of 10 and 100 mgr/kg): oral, 5 mice each, 3 hours before bicuculline 0.6 mgr/kg i.v., tonic convulsions; for ED50: Mus musculus, iv, 3 h, read-out: DE50
Method: (§1) The anticonvulsive effect was examined for tonic convulsions induced by bicuculline. The compounds of the invention were administrated orally at dosages of 10 and 100 mgr/kg, each to 5 mice, 3 hours before intravenous injection of bicuculline at the dosage of 0.6 mgr/kg. The number of mice protected against tonic convulsions and the number of dead mice were noted.
(§2) Amongst the substances according to the invention, 2-n-pentylaminoacetamideand its hydrochloride were more particularly studied. […] The hydrochloride was also administered intravenously. […] Table III also gives the therapeutical index (LD50/ED50).

mice = experiment: in vivo; details: oral, mice; Table II
[2] = tested on: decarboxylase glutamate (GAD); experiment: activity of decarboxylase glutamate (GAD) in homogenizates of rat brain; assay type: biochemical; details: 10^-4 M
Method: The substances of the invention have the property of inhibiting convulsions induced by bicculline in mouse. […] As a matter of fact, bucuculline is a specific antoganist of GABA. Besides, the effect of the products on the activity of the GABA synthesis enzyme, decarboxylase glutamate (GAD), was studied. The activity of the GAD was determined in homogenizates of rat brain according to the method described by L. Parker (Methods in Enzymology, Ed. S. Fleischer, 1974, Vol. XXXII, part V., p. 779). […] In general, the products of the invention […] the activity of the […] (GABA-T), enzyme of GABA catabolism, which results in an increase of the GABA levels at the level of GABA-ergic neurons.

in vivo [3] = details: mouse, in vivo, po, read-out: DL50 (the source's name)
platelet agglutination = experiment: inhibition of platelet agglutination in human plasma (turbidimetric method of Born and Cross, Trombofax); assay type: cell-based; details: human plasma rich in platelets, preincubated 3 minutes before Trombofax
Method: The measure of the inhibition of platelet agglutination is made according to the turbidimetric method of G. V. R. Born and M. J. Cross (J. Physiol. 168, 178, […]). The plasma rich in platelets is preincubated for 3 minutes before introduction of the inductor agent, Trombofax. The inhibion of the maximum amplitude of agglutination is measured by means of Upchurch agglutometer. In this test, compounds 1, 11, 14 and 18 have shown as being active.

mortality caused by KCN = experiment: protection of mice against mortality caused by KCN; assay type: in vivo, mouse
[4] = tested on: convulsions induced by strychnine; experiment: convulsions induced by strychnine; details: in vivo
in vivo [5] = details: mouse, in vivo, po
Method: as §1, §2

Q: With `CCCCCNC(C)C(N)=O` (stereo not drawn) [Compound 41] as the molecule, how does the “bicuculline (score: sum of animals protected by dosages of 10 and 100 mgr/kg)” value (shortened to “bicuculline”) [1] read?
A: 4

Q: With `O=C1NC(=O)C(c2ccccc2)(c2ccccc2)N1` [Na Diphenylhydantoin, reference compound] as the molecule, how does the ED50 [1] read?
A: 2.63 mg/kg

Q: What does the source list for `CCCCCNCC(N)=O` [Compound 34]?
A: bicuculline (score: sum of animals protected by dosages of 10 and 100 mgr/kg) [1]: 5; DL50 (mice): > 3000 mg/kg

Q: Which “bicuculline” value [1] does the source give for `CCCCNC(=O)C(C(C)C)N(CCCCOc1ccccc1)C(C)=O` (stereo not drawn) [Compound 55, N-n-butyl-2-[N-acetyl-N-(4-phenoxybutyl)]aminoisovaleramide] here?
A: 6

Q: For `COC(=O)CCCCCNCC(N)=O` [Compound 8], which “bicuculline” value [1] is on record?
A: 1

Q: What about the “effect on the activity of GAD” value [2] of the same molecule?
A: particularly remarkable

Q: What about the LD50 (in vivo [3]; mice, Table II) of the same molecule?
A: > 3000 mg/kg

Q: For `CCCCCCCCCNCC(N)=O` [Compound 11], which “inhibition of platelet agglutination” value (platelet agglutination) is on record?
A: active

Q: And the “bicuculline” value [1]?
A: 2

Q: What about the LD50 (in vivo [3]; mice, Table II) of the same molecule?
A: 1950 mg/kg

Q: For `CCCCCCCNCC(N)=O` [Compound 9, 2-n-Heptylaminoacetamide], which “protection against mortality caused by KCN” value (mortality caused by KCN) is on record?
A: protect mice against mortality caused by KCN

Q: And the “bicuculline” value [1]?
A: 5

Q: And the LD50 (in vivo [3]; mice, Table II)?
A: 1420 mg/kg

Q: For `NC(=O)CNCCCCCCO` [Compound 4], which “bicuculline” value [1] is on record?
A: 4

Q: What about the LD50 (in vivo [3]; mice, Table II) of the same molecule?
A: > 3000 mg/kg

Q: Which results are given for `CCCCCCNCC(N)=O` [Compound 2, 2-n-hexylaminoacetamide]?
A: bicuculline (score: sum of animals protected by dosages of 10 and 100 mgr/kg) [1]: 4; DL50 (mice): 780 mg/kg

Q: With `CCCCCNC(C(N)=O)c1ccccc1` (stereo not drawn) [Compound 46] as the molecule, how does the “bicuculline” value [1] read?
A: 5

Q: Which “bicuculline” value [1] does the source give for `CCCCCCCCC=CCCCCCCCCNCC(N)=O` [Compound 17, 2-n-octadecen-9-ylaminoacetamide] here?
A: 2

Q: And the LD50 (in vivo [3]; mice, Table II)?
A: > 3000 mg/kg

Q: With `NC(=O)CN(CCCCCCO)CC(N)=O` [Compound 5] as the molecule, how does the “bicuculline” value [1] read?
A: 2

Q: What about the LD50 (in vivo [3]; mice, Table II) of the same molecule?
A: > 3000 mg/kg

Q: Which “bicuculline” value [1] does the source give for `NC(=O)CNCCCc1ccccc1` [Compound 49, 2-(3-phenylpropyl)aminoacetamide] here?
A: 7

Q: Which “bicuculline” value [1] does the source give for `CCOC(=O)CCCCCCCNCC(N)=O` [Compound 16] here?
A: 5

Q: And the LD50 (in vivo [3]; mice, Table II)?
A: > 1000 mg/kg

Q: With `NC(=O)CNCCCCO` [Compound 7] as the molecule, how does the “bicuculline” value [1] read?
A: 2

Q: With `CCCCCCN(CC(N)=O)C(=O)C(C)(C)C` [Compound 45] as the molecule, how does the “bicuculline” value [1] read?
A: 3

Q: With `C=CCCCCCNCC(N)=O` [Compound 40] as the molecule, how does the “bicuculline” value [1] read?
A: 4

Q: What does the source list for `CCCCCCNCC(N)=O` [Compound 27]?
A: bicuculline (score: sum of animals protected by dosages of 10 and 100 mgr/kg) [1]: 4; DL50 (mice): 860 mg/kg

Q: Which “bicuculline” value [1] does the source give for `NC(=O)CNCCC(c1ccccc1)c1ccccc1` [Compound 56] here?
A: 4

Q: For `NC(=O)CNCCCCCCCC(=O)O` [Compound 51, 8-carboxamidomethylaminooctanoic acid], which “bicuculline” value [1] is on record?
A: 6

Q: What does the source list for `CCCCCCCC(C)NCC(N)=O` (stereo not drawn) [Compound 18]?
A: inhibition of platelet agglutination (platelet agglutination): active; bicuculline (score: sum of animals protected by dosages of 10 and 100 mgr/kg) [1]: 2; LD50 (in vivo [3]; mice, Table II): > 1000 mg/kg

Q: With `CCCCCCNCC(=O)N(C)C` [Compound 54] as the molecule, how does the “bicuculline” value [1] read?
A: 4

Q: With `CCCCCCN(C)CC(N)=O` [Compound 30, 2-(N-n-hexyl-N-methylamino)acetamide] as the molecule, how does the “bicuculline” value [1] read?
A: 4

Q: What about the LD50 (in vivo [3]; mice, Table II) of the same molecule?
A: 570 mg/kg

Q: For `CCCCCCN(CC(N)=O)C(=O)OCC` [Compound 47, Ethyl N-n-hexyl-N-carboxamidomethylcarbamate], which “bicuculline” value [1] is on record?
A: 8

Q: Which “bicuculline” value [1] does the source give for `CCCCCCNCC(N)=O` [Compound 12, 2-n-hexylaminoacetamide] here?
A: 5

Q: What about the DL50 (mice) of the same molecule?
A: 2800 mg/kg

Q: For `C#CC(C)(C)NCC(N)=O` [Compound 42, 2-(1,1-dimethylpropyn-2-yl)aminoacetamide], which “bicuculline” value [1] is on record?
A: 6

Q: For `C=CCCCCCCNCC(N)=O` [Compound 50], which “bicuculline” value [1] is on record?
A: 6

Q: Which results are given for `CCCCCNCC(N)=O` [Compound 35]?
A: bicuculline (score: sum of animals protected by dosages of 10 and 100 mgr/kg) [1]: 3; DL50 (mice): > 3000 mg/kg

Q: What does the source list for `CCCCCNCC(N)=O` [Compound 20]?
A: bicuculline (score: sum of animals protected by dosages of 10 and 100 mgr/kg) [1]: 1; DL50 (mice): > 1000 mg/kg

Q: With `CCCCCCNCC(=O)NCCCCCC` [Compound 37, N-n-hexyl-2-(n-hexylamino)acetamide] as the molecule, how does the “bicuculline” value [1] read?
A: 3

Q: For `CCCC(CCC)C(=O)O` [Na Valproate, reference compound], which “activity against convulsions induced by strychnine” value [4] is on record?
A: inactive

Q: What about the ED50 [1] of the same molecule?
A: 89.1 mg/kg

Q: What about the selectivity ratio (in vivo [5]) of the same molecule?
A: 14

Q: What about the LD50 (in vivo [3]; Table III) of the same molecule?
A: 1250 mg/kg

Q: Which “bicuculline” value [1] does the source give for `CCCCCNCC(N)=O` [Compound 26] here?
A: 3

Q: And the DL50 (mice)?
A: 1950 mg/kg

Q: With `CCCCCCN(CC(N)=O)C(=O)c1ccccc1` [Compound 25] as the molecule, how does the “bicuculline” value [1] read?
A: 5

Q: What about the LD50 (in vivo [3]; mice, Table II) of the same molecule?
A: 3660 mg/kg

Q: What does the source list for `COC(=O)CCCCCCCNC(C(N)=O)C(N)=O` [Compound 23, Methyl 8-(dicarboxamidomethyl)aminooctanoate]?
A: bicuculline (score: sum of animals protected by dosages of 10 and 100 mgr/kg) [1]: 7; DL50 (mice): > 1000 mg/kg

Q: What does the source list for `COC(=O)CCCCCN(CC(N)=O)CC(N)=O` [Compound 6, Methyl 6-(dicarboxamidomethyl)aminohexanoate]?
A: bicuculline (score: sum of animals protected by dosages of 10 and 100 mgr/kg) [1]: 6; LD50 (in vivo [3]; mice, Table II): > 3000 mg/kg

Q: Which “bicuculline” value [1] does the source give for `CCCCCCNCC(=O)Nc1cccc(Cl)c1` [Compound 53] here?
A: 4

Q: For `NC(=O)CNCCc1ccccc1` [Compound 36, 2-(2-phenylethyl)aminocacetamide], which “bicuculline” value [1] is on record?
A: 7

Q: What does the source list for `CCCCCCN(CC)CC(N)=O` [Compound 28]?
A: bicuculline (score: sum of animals protected by dosages of 10 and 100 mgr/kg) [1]: 5; LD50 (in vivo [3]; mice, Table II): 435 mg/kg

Q: Which “bicuculline” value [1] does the source give for `CCCCCCNCC(N)=O` [Compound 31] here?
A: 6

Q: What about the DL50 (mice) of the same molecule?
A: 1650 mg/kg

Q: With `NC(=O)CNCCCCc1ccccc1` [Compound 52, 2-(4-phenylbutyl)aminoacetamide] as the molecule, how does the “bicuculline” value [1] read?
A: 7

Q: With `CCCCCNC(CC)C(N)=O` (stereo not drawn) [Compound 48, 2-(n-pentylamino)-butyramide] as the molecule, how does the “bicuculline” value [1] read?
A: 6

Q: For `CCCCCCCCCCCCNCC(N)=O` [Compound 13, 2-n-docecylaminoacetamide], which “bicuculline” value [1] is on record?
A: 2

Q: And the LD50 (in vivo [3]; mice, Table II)?
A: > 3000 mg/kg

Q: With `CCCCCCCCCCNCC(N)=O` [Compound 14, 2-n-decylaminoacetamide] as the molecule, how does the “inhibition of platelet agglutination” value (platelet agglutination) read?
A: active

Q: And the “bicuculline” value [1]?
A: 6

Q: And the LD50 (in vivo [3]; mice, Table II)?
A: 2600 mg/kg

Q: For `CCCCCCNCC(=O)NC` [Compound 38], which “bicuculline” value [1] is on record?
A: 3

Q: With `NC(=O)CNCCOc1ccccc1` [Compound 57] as the molecule, how does the “bicuculline” value [1] read?
A: 5

Q: With `CCC1(c2ccccc2)C(=O)NC(=O)NC1=O` [Na Phenobarbital, reference compound] as the molecule, how does the ED50 [1] read?
A: 2.11 mg/kg

Q: What about the selectivity ratio (in vivo [5]) of the same molecule?
A: 88

Q: And the LD50 (in vivo [3]; Table III)?
A: 185 mg/kg

Q: For `CCCCCCCCCCCCCCCCCCNCC(N)=O` [Compound 10, 2-n-octadecylaminoacetamide], which “bicuculline” value [1] is on record?
A: 1

Q: What about the LD50 (in vivo [3]; mice, Table II) of the same molecule?
A: > 3000 mg/kg
